Data as given in patent publication US20250144067A1, “PERSONALIZED STARVATION THERAPY FOR CANCER” (Faeth Therapeutics, Inc., priority 2021, published 2025).
Counter-ions that a name gives are not always drawn.

The molecules below were run on NCI-H292 lung cancer cells (assay: FDA drug screening, complete media vs cholesterol-free media with simvastatin (TABLE 2)). Details: not given.
Assay type: cell-based, human

Row | Compound | Cholesterol-free media + simvastatin (0.04 μM) | Complete Media | Difference
1 | Clc1ccc2c(c1)CCc1cccnc1C2=C1CCNCC1 [Desloratadine] | 0.922 | 0.6254 | −0.30
2 | CC(C)(C)C(=O)OCC(=O)[C@H]1CC[C@H]2[C@@H]3CCC4=CC(=O)CC[C@]4(C)[C@H]3CC[C@]12C [Desoxycorticosterone pivalate] | 1.728 | 1.762 | 0.03

Same assay, conditions: NCI-H292 cells, FDA drug library screen, cholesterol-free media with simvastatin 0.04 μM

Row | Compound | Cholesterol-free media + simvastatin (0.04 μM)
3 | Cc1cccc(Cc2c[nH]cn2)c1C [Detomidine (hydrochloride)] | 1.019
4 | CC(=O)OCC(=O)[C@@]1(O)[C@H](C)C[C@H]2[C@@H]3CCC4=CC(=O)C=C[C@]4(C)[C@@]3(F)[C@@H](O)C[C@@]21C [Dexamethasone acetate] | 0.9553
5 | C[C@@H]1C[C@H]2[C@@H]3CCC4=CC(=O)C=C[C@]4(C)[C@@]3(F)[C@@H](O)C[C@]2(C)[C@@]1(O)C(=O)COP(=O)([O-])[O-].[Na+].[Na+] [Dexamethasone phosphate disodium] | 0.6625
6 | C[C@@H]1C[C@H]2[C@@H]3CCC4=CC(=O)C=C[C@]4(C)[C@@]3(F)[C@@H](O)C[C@]2(C)[C@@]1(O)C(=O)CO [Dexamethasone] | 0.6107
7 | CC(=O)Nc1c(I)c(NC(C)=O)c(I)c(C(=O)O)c1I [Diatrizoic acid] | 1.834
8 | CCCCOc1cc(C(=O)NCCN(CC)CC)c2ccccc2n1 [Dibucaine (hydrochloride)] | 0.7966
9 | N#CC(c1ccc(Cl)cc1)c1c(Cl)cc(-n2ncc(=O)[nH]c2=O)cc1Cl (centres unmarked) [Diclazuril] | 1.052
10 | Cc1onc(-c2c(Cl)cccc2Cl)c1C(=O)N[C@@H]1C(=O)N2[C@@H]1SC(C)(C)[C@@H]2C(=O)O [Dicloxacillin (Sodium hydrate)] | 1.145
11 | O=c1oc2ccccc2c(O)c1Cc1c(O)c2ccccc2oc1=O [Dicoumarol] | 0.8973
12 | CCN(CC)CCOC(=O)C1(C2CCCCC2)CCCCC1 [Dicyclomine (hydrochloride)] | 0.9961

Same assay, conditions: NCI-H292 cells, FDA drug library screen, complete media

Row | Compound | Complete Media
13 | Cc1cccc(Cc2c[nH]cn2)c1C [Detomidine (hydrochloride)] | 0.9319
14 | CC(=O)OCC(=O)[C@@]1(O)[C@H](C)C[C@H]2[C@@H]3CCC4=CC(=O)C=C[C@]4(C)[C@@]3(F)[C@@H](O)C[C@@]21C [Dexamethasone acetate] | 0.8728
15 | C[C@@H]1C[C@H]2[C@@H]3CCC4=CC(=O)C=C[C@]4(C)[C@@]3(F)[C@@H](O)C[C@]2(C)[C@@]1(O)C(=O)COP(=O)([O-])[O-].[Na+].[Na+] [Dexamethasone phosphate disodium] | 1.229
16 | C[C@@H]1C[C@H]2[C@@H]3CCC4=CC(=O)C=C[C@]4(C)[C@@]3(F)[C@@H](O)C[C@]2(C)[C@@]1(O)C(=O)CO [Dexamethasone] | 0.7971
17 | CCCCOc1cc(C(=O)NCCN(CC)CC)c2ccccc2n1 [Dibucaine (hydrochloride)] | 1.391
18 | N#CC(c1ccc(Cl)cc1)c1c(Cl)cc(-n2ncc(=O)[nH]c2=O)cc1Cl (centres unmarked) [Diclazuril] | 0.9766
19 | Cc1onc(-c2c(Cl)cccc2Cl)c1C(=O)N[C@@H]1C(=O)N2[C@@H]1SC(C)(C)[C@@H]2C(=O)O [Dicloxacillin (Sodium hydrate)] | 1.008
20 | O=c1oc2ccccc2c(O)c1Cc1c(O)c2ccccc2oc1=O [Dicoumarol] | 1.089
21 | CCN(CC)CCOC(=O)C1(C2CCCCC2)CCCCC1 [Dicyclomine (hydrochloride)] | 0.9187

Same assay, conditions: NCI-H292 cells, FDA library drug in cholesterol-free media with simvastatin 0.04 μM

Row | Compound | Cholesterol-free media + simvastatin (0.04 μM)
22 | C[C@@H](CN1CC(=O)NC(=O)C1)N1CC(=O)NC(=O)C1 [Dexrazoxane (hydrochloride)] | 1.279
23 | O=C(O)Cc1ccccc1Nc1c(Cl)cccc1Cl [Diclofenac (Sodium)] | 1.356

Same assay, conditions: NCI-H292 cells, FDA library drug in complete media

Row | Compound | Complete Media
24 | C[C@@H](CN1CC(=O)NC(=O)C1)N1CC(=O)NC(=O)C1 [Dexrazoxane (hydrochloride)] | 1.002
25 | O=C(O)Cc1ccccc1Nc1c(Cl)cccc1Cl [Diclofenac (Sodium)] | 0.9075

Same assay, conditions: complete media minus cholesterol-free media + simvastatin (0.04 μM); >0 enhanced anti-cancer activity, about 0 neutral, <0 antagonist

Row | Compound | Difference
26 | CC(=O)Nc1c(I)c(NC(C)=O)c(I)c(C(=O)O)c1I [Diatrizoic acid] | −1.00

Same assay, conditions: complete media minus cholesterol-free media + simvastatin; >0 enhanced anti-cancer activity, about 0 neutral, <0 antagonist

Row | Compound | Difference
27 | C[C@@H]1C[C@H]2[C@@H]3CCC4=CC(=O)C=C[C@]4(C)[C@@]3(F)[C@@H](O)C[C@]2(C)[C@@]1(O)C(=O)COP(=O)([O-])[O-].[Na+].[Na+] [Dexamethasone phosphate disodium] | 0.57
28 | C[C@@H]1C[C@H]2[C@@H]3CCC4=CC(=O)C=C[C@]4(C)[C@@]3(F)[C@@H](O)C[C@]2(C)[C@@]1(O)C(=O)CO [Dexamethasone] | 0.19
29 | CCCCOc1cc(C(=O)NCCN(CC)CC)c2ccccc2n1 [Dibucaine (hydrochloride)] | 0.59
30 | O=c1oc2ccccc2c(O)c1Cc1c(O)c2ccccc2oc1=O [Dicoumarol] | 0.19

Same assay, conditions: complete media vs cholesterol-free media + simvastatin (0.04 μM); >0 enhanced anti-cancer activity, about 0 neutral, <0 antagonist

Row | Compound | Difference
31 | Cc1cccc(Cc2c[nH]cn2)c1C [Detomidine (hydrochloride)] | −0.09
32 | CC(=O)OCC(=O)[C@@]1(O)[C@H](C)C[C@H]2[C@@H]3CCC4=CC(=O)C=C[C@]4(C)[C@@]3(F)[C@@H](O)C[C@@]21C [Dexamethasone acetate] | −0.08
33 | C[C@@H](CN1CC(=O)NC(=O)C1)N1CC(=O)NC(=O)C1 [Dexrazoxane (hydrochloride)] | −0.28
34 | N#CC(c1ccc(Cl)cc1)c1c(Cl)cc(-n2ncc(=O)[nH]c2=O)cc1Cl (centres unmarked) [Diclazuril] | −0.08
35 | O=C(O)Cc1ccccc1Nc1c(Cl)cccc1Cl [Diclofenac (Sodium)] | −0.45
36 | Cc1onc(-c2c(Cl)cccc2Cl)c1C(=O)N[C@@H]1C(=O)N2[C@@H]1SC(C)(C)[C@@H]2C(=O)O [Dicloxacillin (Sodium hydrate)] | −0.14
37 | CCN(CC)CCOC(=O)C1(C2CCCCC2)CCCCC1 [Dicyclomine (hydrochloride)] | −0.08

Each molecule was assayed on NCI-H292 lung cancer cells (assay: FDA drug screening, complete media vs cholesterol-free media without statin (TABLE 1)). Details: not given.
Assay type: cell-based, human

Row | Compound | Cholesterol-free | Complete | Difference
38 | Clc1ccc2c(c1)CCc1cccnc1C2=C1CCNCC1 [Desloratadine] | 1.114 | 0.8419 | −0.27
39 | CC(C)(C)C(=O)OCC(=O)[C@H]1CC[C@H]2[C@@H]3CCC4=CC(=O)CC[C@]4(C)[C@H]3CC[C@]12C [Desoxycorticosterone pivalate] | 1.574 | 1.04 | −0.53

Same assay, conditions: Complete minus Cholesterol-free; >0 enhanced anti-cancer activity, about 0 neutral, <0 antagonist

Row | Compound | Difference
40 | CC(=O)OCC(=O)[C@@]1(O)[C@H](C)C[C@H]2[C@@H]3CCC4=CC(=O)C=C[C@]4(C)[C@@]3(F)[C@@H](O)C[C@@]21C [Dexamethasone acetate] | −0.04
41 | C[C@@H]1C[C@H]2[C@@H]3CCC4=CC(=O)C=C[C@]4(C)[C@@]3(F)[C@@H](O)C[C@]2(C)[C@@]1(O)C(=O)COP(=O)([O-])[O-].[Na+].[Na+] [Dexamethasone phosphate disodium] | −0.02
42 | C[C@@H]1C[C@H]2[C@@H]3CCC4=CC(=O)C=C[C@]4(C)[C@@]3(F)[C@@H](O)C[C@]2(C)[C@@]1(O)C(=O)CO [Dexamethasone] | 0.07
43 | C[C@@H](CN1CC(=O)NC(=O)C1)N1CC(=O)NC(=O)C1 [Dexrazoxane (hydrochloride)] | 0.03
44 | O=C(O)Cc1ccccc1Nc1c(Cl)cccc1Cl [Diclofenac (Sodium)] | −0.23
45 | Cc1onc(-c2c(Cl)cccc2Cl)c1C(=O)N[C@@H]1C(=O)N2[C@@H]1SC(C)(C)[C@@H]2C(=O)O [Dicloxacillin (Sodium hydrate)] | 0.01

Same assay, conditions: Complete minus Cholesterol-free; greater than 0 enhanced anti-cancer activity, about 0 neutral, below 0 antagonist

Row | Compound | Difference
46 | CC(=O)Nc1c(I)c(NC(C)=O)c(I)c(C(=O)O)c1I [Diatrizoic acid] | −0.07

Same assay, conditions: Complete minus Cholesterol-free; greater than 0 enhanced anti-cancer activity, about 0 neutral, below 0 antagonists

Row | Compound | Difference
47 | Cc1cccc(Cc2c[nH]cn2)c1C [Detomidine (hydrochloride)] | −0.47
48 | CCCCOc1cc(C(=O)NCCN(CC)CC)c2ccccc2n1 [Dibucaine (hydrochloride)] | −0.71
49 | O=c1oc2ccccc2c(O)c1Cc1c(O)c2ccccc2oc1=O [Dicoumarol] | −0.93

Same assay, conditions: NCI-H292 cells in cholesterol-free media without statin

Row | Compound | Cholesterol-free
50 | Cc1cccc(Cc2c[nH]cn2)c1C [Detomidine (hydrochloride)] | 1.106
51 | CCCCOc1cc(C(=O)NCCN(CC)CC)c2ccccc2n1 [Dibucaine (hydrochloride)] | 1.433
52 | O=c1oc2ccccc2c(O)c1Cc1c(O)c2ccccc2oc1=O [Dicoumarol] | 2.049

Same assay, conditions: NCI-H292 cells in complete media

Row | Compound | Complete
53 | Cc1cccc(Cc2c[nH]cn2)c1C [Detomidine (hydrochloride)] | 0.6322
54 | CCCCOc1cc(C(=O)NCCN(CC)CC)c2ccccc2n1 [Dibucaine (hydrochloride)] | 0.7196
55 | O=c1oc2ccccc2c(O)c1Cc1c(O)c2ccccc2oc1=O [Dicoumarol] | 1.114

Same assay, conditions: NCI-H292 cells, FDA drug library screen, cholesterol-free media without statin

Row | Compound | Cholesterol-free
56 | CC(=O)Nc1c(I)c(NC(C)=O)c(I)c(C(=O)O)c1I [Diatrizoic acid] | 1.077

Same assay, conditions: NCI-H292 cells, FDA drug library screen, complete media

Row | Compound | Complete
57 | CC(=O)Nc1c(I)c(NC(C)=O)c(I)c(C(=O)O)c1I [Diatrizoic acid] | 1.004

Same assay, conditions: NCI-H292 cells, cholesterol-free media without statin

Row | Compound | Cholesterol-free
58 | O=C(O)Cc1ccccc1Nc1c(Cl)cccc1Cl [Diclofenac (Sodium)] | 1.086
59 | CCN(CC)CCOC(=O)C1(C2CCCCC2)CCCCC1 [Dicyclomine (hydrochloride)] | 1.211

Same assay, conditions: NCI-H292 cells, cholesterol-free media without statin, FDA drug library screen

Row | Compound | Cholesterol-free
60 | CC(=O)OCC(=O)[C@@]1(O)[C@H](C)C[C@H]2[C@@H]3CCC4=CC(=O)C=C[C@]4(C)[C@@]3(F)[C@@H](O)C[C@@]21C [Dexamethasone acetate] | 0.6815
61 | C[C@@H]1C[C@H]2[C@@H]3CCC4=CC(=O)C=C[C@]4(C)[C@@]3(F)[C@@H](O)C[C@]2(C)[C@@]1(O)C(=O)COP(=O)([O-])[O-].[Na+].[Na+] [Dexamethasone phosphate disodium] | 0.7426
62 | C[C@@H]1C[C@H]2[C@@H]3CCC4=CC(=O)C=C[C@]4(C)[C@@]3(F)[C@@H](O)C[C@]2(C)[C@@]1(O)C(=O)CO [Dexamethasone] | 0.7411
63 | C[C@@H](CN1CC(=O)NC(=O)C1)N1CC(=O)NC(=O)C1 [Dexrazoxane (hydrochloride)] | 0.9516
64 | N#CC(c1ccc(Cl)cc1)c1c(Cl)cc(-n2ncc(=O)[nH]c2=O)cc1Cl (centres unmarked) [Diclazuril] | 0.7362
65 | Cc1onc(-c2c(Cl)cccc2Cl)c1C(=O)N[C@@H]1C(=O)N2[C@@H]1SC(C)(C)[C@@H]2C(=O)O [Dicloxacillin (Sodium hydrate)] | 0.8462

Same assay, conditions: NCI-H292 cells, complete media

Row | Compound | Complete
66 | O=C(O)Cc1ccccc1Nc1c(Cl)cccc1Cl [Diclofenac (Sodium)] | 0.859
67 | CCN(CC)CCOC(=O)C1(C2CCCCC2)CCCCC1 [Dicyclomine (hydrochloride)] | 0.8491

Same assay, conditions: NCI-H292 cells, complete media, FDA drug library screen

Row | Compound | Complete
68 | CC(=O)OCC(=O)[C@@]1(O)[C@H](C)C[C@H]2[C@@H]3CCC4=CC(=O)C=C[C@]4(C)[C@@]3(F)[C@@H](O)C[C@@]21C [Dexamethasone acetate] | 0.6403
69 | C[C@@H]1C[C@H]2[C@@H]3CCC4=CC(=O)C=C[C@]4(C)[C@@]3(F)[C@@H](O)C[C@]2(C)[C@@]1(O)C(=O)COP(=O)([O-])[O-].[Na+].[Na+] [Dexamethasone phosphate disodium] | 0.7227
70 | C[C@@H]1C[C@H]2[C@@H]3CCC4=CC(=O)C=C[C@]4(C)[C@@]3(F)[C@@H](O)C[C@]2(C)[C@@]1(O)C(=O)CO [Dexamethasone] | 0.8107
71 | C[C@@H](CN1CC(=O)NC(=O)C1)N1CC(=O)NC(=O)C1 [Dexrazoxane (hydrochloride)] | 0.9799
72 | N#CC(c1ccc(Cl)cc1)c1c(Cl)cc(-n2ncc(=O)[nH]c2=O)cc1Cl (centres unmarked) [Diclazuril] | 1.131
73 | Cc1onc(-c2c(Cl)cccc2Cl)c1C(=O)N[C@@H]1C(=O)N2[C@@H]1SC(C)(C)[C@@H]2C(=O)O [Dicloxacillin (Sodium hydrate)] | 0.855

Same assay, conditions: complete vs cholesterol-free media; >0 enhanced anti-cancer activity, about 0 neutral, <0 antagonist

Row | Compound | Difference
74 | N#CC(c1ccc(Cl)cc1)c1c(Cl)cc(-n2ncc(=O)[nH]c2=O)cc1Cl (centres unmarked) [Diclazuril] | 0.39

Same assay, conditions: complete vs cholesterol-free media; greater than 0 enhanced anti-cancer activity, about 0 neutral, below 0 antagonists

Row | Compound | Difference
75 | CCN(CC)CCOC(=O)C1(C2CCCCC2)CCCCC1 [Dicyclomine (hydrochloride)] | −0.36
